Results on two molecules are retold here after US20230337668A1, “COMPOSITION” (GIVAUDAN SA, priority 2020, published 2023).

The assay has as its system Bacillus subtillis. Kind of assay: microorganisms counting in inoculated fish matrix (fish model). The settings on record: D14, 25° C., positive control at 0.3%, average of two determinations. Here is the method: Fish matrix was made of fish and water (50/50), without preservatives. The matrix was homogenized in a blade mixer grinder and then sterilized at 121° C. for 20 minutes, prior the tests.
Blends were added at 0.5 % into the matrix. Matrices without preservatives (0.5 % of NaCl 0.9%) and matrices with conventional chemical preservatives (0.3% of sodium lactate or potassium nitrite, separately) were used as negative and positive control, respectively.
Each matrix type was portioned into sterile flasks and inoculated with 3 Log CFU/g of different microorganisms, separately. Each flask corresponds to one sample at a given date of analysis.
The inoculated matrices were incubated at 25° C.
The counting of the microorganisms was determined in specific agar medium.

In the case of `O=N[O-].[K+]` [Potassium nitrite], the “Bacillus subtillis spores (Bacillus subtillis totaux - Bacillus subtillis vegetative cells)” value is 2.39 Log CFU/g and the “Bacillus subtillis totaux (vegetative cells + spores)” value was found to be 2.60 Log CFU/g.

On to `CC(O)C(=O)[O-].[Na+]` (stereo not shown) [Sodium lactate], for which the “Bacillus subtillis spores (Bacillus subtillis totaux - Bacillus subtillis vegetative cells)” value amounted to 2.35 Log CFU/g and the “Bacillus subtillis totaux (vegetative cells + spores)” value was 2.90 Log CFU/g.
